In ChEMBL document CHEMBL1127390, “Novel acyclic nucleotides and nucleoside 5'-triphosphates imitating 2',3'-dideoxy-2',3'-didehydronucleotides: synthesis and biological properties” (1994):
Calls of active or inactive are those of the source. The calls are words filed in the database; no cut-off is given here.

Columns and labels:
MT4 [1] = experiment: Anti HIV-l activity in infected MT-4 cells cultures; NA is NO Activity; assay type: functional, cell-based; conditions: Homo sapiens
[2] = target: Human immunodeficiency virus type 1 reverse transcriptase (Human immunodeficiency virus 1) (UniProt Q72547); experiment: In vitro effective dose for the inhibition of human immunodeficiency virus (HIV) reverse transcriptase in MT-4 and peripheral lymphocyte (PBL) cell cultures; NI is No Inhibition up to a concentration of 100 uM; assay type: functional
MT4 [3] = experiment: Activity in HIV-l infected MT-4 cells cultures; No activity; assay type: functional, cell-based; conditions: Homo sapiens
[4] = target: Human immunodeficiency virus type 1 reverse transcriptase (Human immunodeficiency virus 1) (UniProt Q72547); experiment: Tested for percent inhibition of the human immunodeficiency virus (HIV) reverse transcriptase in MT-4; assay type: functional
MT4 [5] = experiment: Anti HIV-l activity in infected MT-4 cells cultures; assay type: functional; conditions: Homo sapiens, read-out: ED50 (the source's name)

Question: `Nc1nc(O)c2ncn(C/C=C\COCP(=O)(O)O)c2n1` was tested. Which ED50 (MT4 [1]) did it give?
Answer: inactive

Question: Which ED50 [2] does the source give for `Nc1ncnc2c1ncn2C/C=C\CCOP(=O)(O)OP(=O)(O)OP(=O)(O)O` here?
Answer: No inhibition

Question: `Cc1cn(C/C=C\COCP(=O)(O)O)c(=O)[nH]c1=O` was tested. Which ED50 (MT4 [1]) did it give?
Answer: inactive

Question: Which ED50 (MT4 [3]) does the source give for `Nc1ncnc2c1ncn2C/C=C\CO` here?
Answer: inactive

Question: With `Nc1ccn(C/C=C\COCP(=O)(O)OP(=O)(O)OP(=O)(O)O)c(=O)n1` as the compound, how does the ED50 [4] read?
Answer: 50 µM

Question: With `Nc1ccn(C/C=C\COCP(=O)(O)O)c(=O)n1` as the compound, how does the ED50 (MT4 [1]) read?
Answer: inactive

Question: For `Nc1ncnc2c1ncn2C/C=C\COCP(=O)(O)O`, which EC50 (MT4 [5]) is on record?
Answer: 9 µM
